Values of other authors as cited in patent publication US20250171403A1 (Synthon B.V., priority 2022, published 2025).

Conditions: qualitative, background statement

solubility (prior art, general statement): poorly soluble
SMILES: COc1cc2nccc(Oc3ccc(NC(=O)C4(C(=O)Nc5ccc(F)cc5)CC4)cc3)c2cc1OC [Cabozantinib, N-[4-(6,7-Dimethoxyquinolin-4-yloxy)phenyl]-N′-(4-fluorophenyl)cyclopropane-1,1-dicarboxamide]
